Read-outs that look alike come from different tables or passages of the source.
Molecular target: T1, hmGluR1 receptor (Homo sapiens, UniProt Q13255)
T1 construct: expressed in transfected cells; host or cells: CHO
Assay: IC50 Determination: intracellular calcium mobilization (FLIPR) in a CHO cell line stably expressing hmGluR1 receptor, against Quisqualate
Format: cell-based
Conditions: CHO cells expressing hmGluR1, against Quisqualate 1 μM (EC80), compounds added 10 minutes before agonist
Protocol: A CHO cell line stably expressing hmGluR1 receptor was established. One day prior to assay, cells were split in growth media at concentration of 50,000 cells/well in a volume of 100 μl and seeded into black clear-bottom 96-well plates. After two to six hours, when cells were well attached to the plate, growth medium was replaced with assay medium (100 μL) consisting of DMEM high glucose, supplemented with GPT (1 U/mL) and sodium pyruvate, 1 mM. Following overnight incubation, medium was discarded and cells were loaded for 2 hours with dye from the Calcium 3 Assay Reagent Kit (Molecular Devices, # R8033), prepared according to manufacturers' instructions. A 96-tip pipettor/fluorometric imaging plate reader (FLIPR 384; Molecular Devices) was used and intracellular calcium mobilization was measured by increases in fluorescence upon agonist Quisqualate stimulation following 6 sec-baseline measurement. Test compounds were added 10 minutes before Quisqualate. IC50 determinations for tested compounds were generated against Quisqualate 1 μM corresponding to EC80 value in a standard dose response curve.

T1 sequence (Q13255 19-1194): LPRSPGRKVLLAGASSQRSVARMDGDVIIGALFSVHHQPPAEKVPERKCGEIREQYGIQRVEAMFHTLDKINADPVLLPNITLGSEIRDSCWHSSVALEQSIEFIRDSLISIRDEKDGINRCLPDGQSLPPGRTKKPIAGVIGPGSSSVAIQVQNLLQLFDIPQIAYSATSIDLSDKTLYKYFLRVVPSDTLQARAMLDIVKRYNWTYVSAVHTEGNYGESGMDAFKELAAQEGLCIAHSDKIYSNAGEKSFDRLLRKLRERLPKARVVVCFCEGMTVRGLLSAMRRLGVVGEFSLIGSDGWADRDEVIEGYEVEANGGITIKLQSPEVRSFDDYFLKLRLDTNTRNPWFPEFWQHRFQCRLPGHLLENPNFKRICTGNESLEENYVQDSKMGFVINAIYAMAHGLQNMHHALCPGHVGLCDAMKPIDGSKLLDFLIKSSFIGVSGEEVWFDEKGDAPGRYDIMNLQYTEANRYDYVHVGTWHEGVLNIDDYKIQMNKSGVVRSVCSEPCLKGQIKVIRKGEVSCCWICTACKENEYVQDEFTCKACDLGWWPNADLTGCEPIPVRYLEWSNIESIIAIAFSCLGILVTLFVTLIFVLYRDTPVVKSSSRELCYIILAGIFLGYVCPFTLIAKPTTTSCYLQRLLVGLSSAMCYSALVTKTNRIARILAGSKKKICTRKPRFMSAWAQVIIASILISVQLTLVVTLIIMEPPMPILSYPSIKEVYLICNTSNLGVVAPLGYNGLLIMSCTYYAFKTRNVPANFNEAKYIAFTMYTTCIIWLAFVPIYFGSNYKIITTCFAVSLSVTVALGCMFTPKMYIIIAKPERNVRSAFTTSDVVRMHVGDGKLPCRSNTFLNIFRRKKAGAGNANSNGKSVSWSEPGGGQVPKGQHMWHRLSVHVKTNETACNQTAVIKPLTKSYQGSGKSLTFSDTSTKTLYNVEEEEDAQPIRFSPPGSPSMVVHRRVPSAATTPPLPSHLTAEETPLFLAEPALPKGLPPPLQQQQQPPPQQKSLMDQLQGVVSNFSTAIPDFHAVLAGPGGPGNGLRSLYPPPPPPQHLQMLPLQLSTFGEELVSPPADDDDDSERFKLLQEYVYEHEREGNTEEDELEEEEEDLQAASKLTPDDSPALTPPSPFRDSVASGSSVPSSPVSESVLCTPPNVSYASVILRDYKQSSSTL

Compound	IC50 (read-out: mGluR1 IC50 rating)	IC50 (read-out: mGluR1 IC50)
Cn1ncc2cnc3sc4c(=O)n(C5CCCCC5)cnc4c3c21 [Compound 4]	100 to 1000 nM	–
Cn1ccc2cnc3sc4c(=O)n(C5CCCCC5)cnc4c3c21 [Compound 6]	20 to 100 nM	–
Cn1cnc2cnc3sc4c(=O)n(C5CCCCC5)cnc4c3c21 [Compound 9]	20 to 100 nM	–
O=c1c2sc3ncc4nc[nH]c4c3c2ncn1C1CCCCC1 [Compound 12]	20 to 100 nM	23 nM
O=c1c2sc3ncc4nn[nH]c4c3c2ncn1C1CCCCC1 [Compound 13]	100 to 1000 nM	–
O=c1c2sc3ncc4cn[nH]c4c3c2ncn1-c1ccc(Cl)cc1 [Compound 20a]	20 to 100 nM	38 nM
Cc1ccc(-n2cnc3c(sc4ncc5cn[nH]c5c43)c2=O)cc1 [Compound 20b]	< 20 nM	17 nM
Cc1ccc(-n2cnc3c(sc4ncc5c(c43)OCC5)c2=O)cc1 [Compound 24]	100 to 1000 nM	–
Cc1ccc(-n2cnc3c(sc4ncc5cc[nH]c5c43)c2=O)cc1 [Compound 27a]	< 20 nM	0.7 nM
COc1ccc(-n2cnc3c(sc4ncc5cc[nH]c5c43)c2=O)cc1 [Compound 27b]	< 20 nM	4.9 nM
Cc1ccc(-n2cnc3c(sc4ncc5sc(=S)[nH]c5c43)c2=O)cc1 [Compound 28]	100 to 1000 nM	–
CSc1nc2c(cnc3sc4c(=O)n(-c5ccc(C)cc5)cnc4c32)s1 [Compound 29]	100 to 1000 nM	–
Cc1ccc(-n2cnc3c(sc4ncc5sc(=O)[nH]c5c43)c2=O)cc1 [Compound 30]	100 to 1000 nM	–
Cc1ccc(-n2cnc3c(sc4ncc5ccn(C)c5c43)c2=O)cc1 [Compound 31]	20 to 100 nM	–
O=c1c2sc3ncc4cc[nH]c4c3c2ncn1-c1ccc(Cl)cc1 [Compound 34]	< 20 nM	0.4 nM
O=c1c2sc3ncc4nc[nH]c4c3c2ncn1-c1ccc(Cl)cc1 [Compound 35]	< 20 nM	6 nM
Cn1cnc2cnc3sc4c(=O)n(-c5ccc(Cl)cc5)cnc4c3c21 [Compound 36]	< 20 nM	9.8 nM
O=c1c2sc3ncc(Br)c(NCCO)c3c2ncn1-c1ccc(Cl)cc1 [Compound 37a]	< 20 nM	14.2 nM

Now from value to molecule:

IC50 (read-out: mGluR1 IC50 rating)	IC50 (read-out: mGluR1 IC50)	Compound
> 1000 nM	–	C[C@@H](O)CNc1c(Br)cnc2sc3c(=O)n(-c4ccc(Cl)cc4)cnc3c12 [Compound 37b]
> 1000 nM	–	C[C@H](O)CNc1c(Br)cnc2sc3c(=O)n(-c4ccc(Cl)cc4)cnc3c12 [Compound 37c]
> 1000 nM	–	C[C@H](CO)Nc1c(Br)cnc2sc3c(=O)n(-c4ccc(Cl)cc4)cnc3c12 [Compound 37d]
> 1000 nM	–	C[C@@H](CO)Nc1c(Br)cnc2sc3c(=O)n(-c4ccc(Cl)cc4)cnc3c12 [Compound 37e]
100 to 1000 nM	–	Cc1ccc(-n2cnc3c(sc4ncc(Br)c(N(C)CCO)c43)c2=O)cc1 [Compound 37f]
< 20 nM	2.9 nM	O=c1c2sc3ncc4c(c3c2ncn1-c1ccc(Cl)cc1)NCCO4 [Compound 38a]
< 20 nM	1.4 nM	C[C@@H]1CNc2c(cnc3sc4c(=O)n(-c5ccc(Cl)cc5)cnc4c23)O1 [Compound 38b]
< 20 nM	2.2 nM	C[C@H]1CNc2c(cnc3sc4c(=O)n(-c5ccc(Cl)cc5)cnc4c23)O1 [Compound 38c]
20 to 100 nM	–	C[C@@H]1COc2cnc3sc4c(=O)n(-c5ccc(Cl)cc5)cnc4c3c2N1 [Compound 38d]
< 20 nM	12 nM	C[C@H]1COc2cnc3sc4c(=O)n(-c5ccc(Cl)cc5)cnc4c3c2N1 [Compound 38e]
< 20 nM	5.7 nM	Cc1ccc(-n2cnc3c(sc4ncc5c(c43)N(C)CCO5)c2=O)cc1 [Compound 38f]
< 20 nM	5.3 nM	Cc1ccc(-n2cnc3c(sc4ncc5c(c43)NC[C@@H](C)O5)c2=O)cc1 [Compound 38g]
< 20 nM	2.2 nM	Cc1ccc(-n2cnc3c(sc4ncc5c(c43)NCCO5)c2=O)cc1 [Compound 38h]
< 20 nM	2.5 nM	COc1ccc(-n2cnc3c(sc4ncc5c(c43)NCCO5)c2=O)cc1 [Compound 38i]

From patent US7482360B2, “Fused tetracyclic mGluR1 antagonists as therapeutic agents” (Schering Corporation, priority 2005, dated 2009)
